Here are results for 32 compounds from US10435405B2, “Pyrazolopyridine compounds and uses thereof” (Incyte Corporation, priority 2016, dated 2019).

HPK1, sequence (Q92918 1-346): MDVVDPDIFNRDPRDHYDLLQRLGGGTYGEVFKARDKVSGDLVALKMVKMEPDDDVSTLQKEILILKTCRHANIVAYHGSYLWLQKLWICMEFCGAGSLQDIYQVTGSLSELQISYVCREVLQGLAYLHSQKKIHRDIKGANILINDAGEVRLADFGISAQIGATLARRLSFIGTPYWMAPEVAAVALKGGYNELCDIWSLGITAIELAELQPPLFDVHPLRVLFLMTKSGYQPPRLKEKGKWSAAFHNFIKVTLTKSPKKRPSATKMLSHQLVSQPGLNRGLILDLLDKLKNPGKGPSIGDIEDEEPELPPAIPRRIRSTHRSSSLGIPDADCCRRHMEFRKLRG

The experiment addresses HPK1 (Homo sapiens (Human), UniProt Q92918). Description: HPK1 Kinase Binding Assay. The procedure:
A stock solution of 1 mM test compound was prepared in DMSO. The compound plate was prepared by 3-fold and 11-point serial dilutions. 0.1 μL of the compound in DMSO was transferred from the compound plate to the white 384 well polystyrene plates. The assay buffer contained 50 mM HEPES, pH 7.5, 0.01% Tween-20, 5 mM MgCl2, 0.01% BSA, and 5 mM DTT. 5 μl of 4 nM active HPK1 (SignalChem M23-11G) prepared in the buffer was added to the plate. The enzyme concentration given was based on the given stock concentration reported by the vender. 5 μl of 18 nM tracer 222 (ThermoFisher PV6121) and 4 nM LanthaScreen Eu-Anti GST antibody (ThermoFisher PV5595) were added. After one hour incubation at 25° C., the plates were read on a PHERAstar FS plate reader (BMG Labtech). Ki values were determined.
`Cc1cc(C2CCCN2)cc(F)c1-c1cc2c(-c3cnn(C)c3)n[nH]c2cn1` (single isomer, unassigned) [Example 171, 5-(2-Fluoro-6-methyl-4-(pyrrolidin-2-yl)phenyl)-3-(1-methyl-1H-pyrazol-4-yl)-1H-pyrazolo[3,4-c]pyridine]: the Ki – broadly, the equilibrium dissociation constant of an inhibitor or competing ligand from its target – was at most 100 nM.

`Cc1cc(C2CCCCN2)cc(F)c1-c1cc2c(-c3cnn(C)c3)n[nH]c2cn1` (single isomer, unassigned) [Example 174, 5-(2-Fluoro-6-methyl-4-(piperidin-2-yl)phenyl)-3-(1-methyl-1H-pyrazol-4-yl)-1H-pyrazolo[3,4-c]pyridine] came in with a Ki of at most 100 nM.

As for `CNC(C)c1cc(C)c(-c2cc3c(-c4cnn(C)c4)n[nH]c3cn2)c(F)c1` (single isomer, unassigned) [Example 189, 1-(3-Fluoro-5-methyl-4-(3-(1-methyl-1H-pyrazol-4-yl)-1H-pyrazolo[3,4-c]pyridin-5-yl)phenyl)-N-methylethanamine], the Ki is at most 100 nM.

In turn, `Cn1cc(-c2n[nH]c3cnc(-c4c(F)cc(C5CCCN5)cc4C(F)(F)F)cc23)cn1` (single isomer, unassigned) [Example 226, 5-(2-Fluoro-4-(pyrrolidin-2-yl)-6-(trifluoromethyl)phenyl)-3-(1-methyl-1H-pyrazol-4-yl)-1H-pyrazolo[3,4-c]pyridine] came in with a Ki of at most 100 nM.

Turning to `Cn1cc(-c2n[nH]c3cnc(-c4c(F)cc(C5CCCN5)cc4C(F)(F)F)cc23)cn1` (single isomer, unassigned) [Example 227, 5-(2-Fluoro-4-(pyrrolidin-2-yl)-6-(trifluoromethyl)phenyl)-3-(1-methyl-1H-pyrazol-4-yl)-1H-pyrazolo[3,4-c]pyridine], the Ki is at most 100 nM.

Regarding `CNC(C)c1cc(C)c(-c2cc3c(-c4cnn(C5CC5)c4)n[nH]c3cn2)c(F)c1` (single isomer, unassigned) [Example 228, 1-(4-(3-(1-Cyclopropyl-1H-pyrazol-4-yl)-1H-pyrazolo[3,4-c]pyridin-5-yl)-3-fluoro-5-methylphenyl)-N-methylethanamine], the Ki was at most 100 nM.

Compound `CNC(C)c1cc(C)c(-c2cc3c(-c4cnn(C5CC5)c4)n[nH]c3cn2)c(F)c1` (single isomer, unassigned) [Example 229, 1-(4-(3-(1-Cyclopropyl-1H-pyrazol-4-yl)-1H-pyrazolo[3,4-c]pyridin-5-yl)-3-fluoro-5-methylphenyl)-N-methylethanamine] gave a Ki of at most 100 nM.

The compound `CCn1cc(-c2n[nH]c3cnc(-c4c(C)cc(C5CCCCN5)cc4F)cc23)cn1` (single isomer, unassigned) [Example 230, 3-(1-Ethyl-1H-pyrazol-4-yl)-5-(2-fluoro-6-methyl-4-(piperidin-2-yl)phenyl)-1H-pyrazolo[3,4-c]pyridine] showed a Ki of at most 100 nM.

The compound `CCn1cc(-c2n[nH]c3cnc(-c4c(C)cc(C5CCCCN5)cc4F)cc23)cn1` (single isomer, unassigned) [Example 231, 3-(1-Ethyl-1H-pyrazol-4-yl)-5-(2-fluoro-6-methyl-4-(piperidin-2-yl)phenyl)-1H-pyrazolo[3,4-c]pyridine] yielded a Ki of at most 100 nM.

Regarding `Cc1cc(C2CCCCN2)cc(F)c1-c1cc2c(-c3cnn(C4CC4)c3)n[nH]c2cn1` (single isomer, unassigned) [Example 232, 3-(1-Cyclopropyl-1H-pyrazol-4-yl)-5-(2-fluoro-6-methyl-4-(piperidin-2-yl)phenyl)-1H-pyrazolo[3,4-c]pyridine], the Ki is at most 100 nM.

The compound `Cc1cc(C2CCCCN2)cc(F)c1-c1cc2c(-c3cnn(C4CC4)c3)n[nH]c2cn1` (single isomer, unassigned) [Example 233, 3-(1-Cyclopropyl-1H-pyrazol-4-yl)-5-(2-fluoro-6-methyl-4-(piperidin-2-yl)phenyl)-1H-pyrazolo[3,4-c]pyridine] had a Ki of at most 100 nM.

In the case of `CNC1CCc2c1cc(C)c(-c1cc3c(-c4cnn(C)c4)n[nH]c3cn1)c2F` (single isomer, unassigned) [Example 238, 4-Fluoro-N,6-dimethyl-5-(3-(1-methyl-1H-pyrazol-4-yl)-1H-pyrazolo[3,4-c]pyridin-5-yl)-2,3-dihydro-1H-inden-1-amine], the Ki was at most 100 nM.

As to `CNC1CCc2c1cc(C)c(-c1cc3c(-c4cnn(C)c4)n[nH]c3cn1)c2F` (single isomer, unassigned) [Example 239, 4-Fluoro-N,6-dimethyl-5-(3-(1-methyl-1H-pyrazol-4-yl)-1H-pyrazolo[3,4-c]pyridin-5-yl)-2,3-dihydro-1H-inden-1-amine], the Ki is at most 100 nM.

Compound `COc1cccc(F)c1-c1cc2c(NC(=O)c3ccccc3)n[nH]c2cn1` [Example 1, N-(5-(2-Fluoro-6-methoxyphenyl)-1H-pyrazolo[3,4-c]pyridin-3-yl)benzamide] registered a Ki of at most 100 nM.

For the compound `COc1cccc(F)c1-c1cc2c(NC(=O)c3ccc(C)cc3)n[nH]c2cn1` [Example 2, N-(5-(2-Fluoro-6-methoxyphenyl)-1H-pyrazolo[3,4-c]pyridin-3-yl)-4-methylbenzamide], the Ki was at most 100 nM.

Take `COc1cccc(F)c1-c1cc2c(NC(=O)c3ccc(Br)cc3)n[nH]c2cn1` [Example 3, 4-Bromo-N-(5-(2-fluoro-6-methoxyphenyl)-1H-pyrazolo[3,4-c]pyridin-3-yl)benzamide]: the Ki is at most 100 nM.

`COc1cccc(F)c1-c1cc2c(NC(=O)c3cccc(Br)c3)n[nH]c2cn1` [Example 4, 3-Bromo-N-(5-(2-fluoro-6-methoxyphenyl)-1H-pyrazolo[3,4-c]pyridin-3-yl)benzamide] came in with an inhibition constant (Ki) of at most 100 nM.

`COc1cccc(F)c1-c1cc2c(NC(=O)c3ccc(F)cc3)n[nH]c2cn1` [Example 5, 4-Fluoro-N-(5-(2-fluoro-6-methoxyphenyl)-1H-pyrazolo[3,4-c]pyridin-3-yl)benzamide] had a Ki of at most 100 nM.

Compound `COc1cccc(F)c1-c1cc2c(NC(=O)c3cccc(F)c3)n[nH]c2cn1` [Example 6, 3-Fluoro-N-(5-(2-fluoro-6-methoxyphenyl)-1H-pyrazolo[3,4-c]pyridin-3-yl)benzamide] had a Ki of at most 100 nM.

The compound `COc1cccc(F)c1-c1cc2c(NC(=O)c3cccc(C#N)c3)n[nH]c2cn1` [Example 7, 3-Cyano-N-(5-(2-fluoro-6-methoxyphenyl)-1H-pyrazolo[3,4-c]pyridin-3-yl)benzamide] came in with an inhibition constant Ki of at most 100 nM.

As to `CCc1ccc(C(=O)Nc2n[nH]c3cnc(-c4c(F)cccc4OC)cc23)cc1` [Example 8, 4-Ethyl-N-(5-(2-fluoro-6-methoxyphenyl)-1H-pyrazolo[3,4-c]pyridin-3-yl)benzamide], the Ki is at most 100 nM.

As to `COc1cccc(C(=O)Nc2n[nH]c3cnc(-c4c(F)cccc4OC)cc23)c1` [Example 9, N-(5-(2-Fluoro-6-methoxyphenyl)-1H-pyrazolo[3,4-c]pyridin-3-yl)-3-methoxybenzamide], the inhibition constant (Ki) was at most 100 nM.

For the compound `COc1cccc(F)c1-c1cc2c(NC(=O)c3ccc(F)c(C)c3)n[nH]c2cn1` [Example 10, 4-Fluoro-N-(5-(2-fluoro-6-methoxyphenyl)-1H-pyrazolo[3,4-c]pyridin-3-yl)-3-methylbenzamide], the Ki is at most 100 nM.

With `COc1cccc(F)c1-c1cc2c(NC(=O)c3cc(F)cc(F)c3)n[nH]c2cn1` [Example 11, 3,5-Difluoro-N-(5-(2-fluoro-6-methoxyphenyl)-1H-pyrazolo[3,4-c]pyridin-3-yl)benzamide], the Ki is at most 100 nM.

Compound `COc1cccc(F)c1-c1cc2c(NC(=O)c3ccc(F)c(F)c3)n[nH]c2cn1` [Example 12, 3,4-Difluoro-N-(5-(2-fluoro-6-methoxyphenyl)-1H-pyrazolo[3,4-c]pyridin-3-yl)benzamide] returned a Ki of at most 100 nM.

As for `COc1cccc(F)c1-c1cc2c(NC(=O)c3ccc4c(c3)OCO4)n[nH]c2cn1` [Example 13, N-(5-(2-Fluoro-6-methoxyphenyl)-1H-pyrazolo[3,4-c]pyridin-3-yl)benzo[d][1,3]dioxole-5-carboxamide], the Ki is at most 100 nM.

For the compound `COc1cccc(F)c1-c1cc2c(NC(=O)c3cnn(C)c3)n[nH]c2cn1` [Example 14, N-(5-(2-Fluoro-6-methoxyphenyl)-1H-pyrazolo[3,4-c]pyridin-3-yl)-1-methyl-1H-pyrazole-4-carboxamide], the inhibition constant (Ki) was at most 100 nM.

As for `COc1cccc(F)c1-c1cc2c(NC(=O)c3ccn(C)n3)n[nH]c2cn1` [Example 15, N-(5-(2-Fluoro-6-methoxyphenyl)-1H-pyrazolo[3,4-c]pyridin-3-yl)-1-methyl-1H-pyrazole-3-carboxamide], the Ki is at most 100 nM.

The compound `COc1cccc(F)c1-c1cc2c(NC(=O)c3cccc(N4CCOCC4)c3)n[nH]c2cn1` [Example 16, N-(5-(2-Fluoro-6-methoxyphenyl)-1H-pyrazolo[3,4-c]pyridin-3-yl)-3-morpholinobenzamide] displayed an inhibition constant Ki of at most 100 nM.

Compound `COc1cccc(F)c1-c1cc2c(NC(=O)c3cccc(N4CCNC(=O)C4)c3)n[nH]c2cn1` [Example 17, N-(5-(2-Fluoro-6-methoxyphenyl)-1H-pyrazolo[3,4-c]pyridin-3-yl)-3-(3-oxopiperazin-1-yl)benzamide] returned a Ki of at most 100 nM.

In turn, `COc1cccc(F)c1-c1cc2c(NC(=O)c3cccc(N4CCN(C)CC4)c3)n[nH]c2cn1` [Example 18, N-(5-(2-Fluoro-6-methoxyphenyl)-1H-pyrazolo[3,4-c]pyridin-3-yl)-3-(4-methylpiperazin-1-yl)benzamide] came in with a Ki of at most 100 nM.

Compound `COc1cccc(F)c1-c1cc2c(NC(=O)c3cccc(N4CCN(C)C(=O)C4)c3)n[nH]c2cn1` [Example 19, N-(5-(2-Fluoro-6-methoxyphenyl)-1H-pyrazolo[3,4-c]pyridin-3-yl)-3-(4-methyl-3-oxopiperazin-1-yl)benzamide] yielded a Ki of at most 100 nM.
